Experimental data from ChEMBL document CHEMBL5113509, “Synthesis and evaluation of 3'- and 4'-substituted cyclohexyl noviomimetics that modulate mitochondrial respiration” (Bioorg Med Chem, 2022).
Activity calls are given as the source filed them. The calls are words filed in the database; no cut-off is given here.

Experiments:
[1] = system: N2a; assay: Cytoprotective activity against mouse N2a cells assessed as increase in mitochondrial ATP production at 100 to 1000 nM measured by Seahorse extracellular flux analyzer based assay; assay type: functional, cell-based; conditions: dose 100-1000 nM
[2] = system: N2a; assay: Cytoprotective activity against mouse N2a cells assessed as decrease in mitochondrial ATP production at 100 to 1000 nM measured by Seahorse extracellular flux analyzer based assay; assay type: functional, cell-based; conditions: dose 100-1000 nM
[3] = species: Homo sapiens; assay: Disruption of HSP90 alpha (unknown origin) and PPID (unknown origin) at 50 uM measured after 1 hr by AlphaLISA assay relative to control

Compound	Activity [1]	Activity [2]	Activity [3]
CC(=O)NCCc1ccc(OC2CCC(Oc3ccccc3)[C@H](O)[C@@H]2O)cc1-c1cccc(F)c1 (stereo partly drawn)	Active	–	–
CC(=O)NCCc1ccc(O[C@H]2CC[C@@H](Oc3ccc(Cl)cc3)CC2)cc1-c1cccc(F)c1	–	Active	> 50%
CC(=O)NCCc1ccc(O[C@H]2CC[C@H](CCc3ccccc3)CC2)cc1-c1cccc(F)c1	Active	–	> 50%
CC(=O)NCCc1ccc(O[C@H]2CC[C@H](C(F)(F)Cc3ccccc3)CC2)cc1-c1cccc(F)c1	Active	–	> 50%
CC(=O)NCCc1ccc(O[C@H]2CC[C@H](SCc3ccccc3)CC2)cc1-c1cccc(F)c1	Active	–	< 50%
CC(=O)NCCc1ccc(O[C@H]2CC[C@@H](Oc3cccc(Cl)c3)CC2)cc1-c1cccc(F)c1	–	Active	> 50%
CC(=O)NCCc1ccc(O[C@H]2CC[C@H](Oc3ccccc3)CC2)cc1-c1cccc(F)c1	Active	–	> 50%
CC(=O)NCCc1ccc(O[C@H]2CC[C@H](Cc3ccccc3)CC2)cc1-c1cccc(F)c1	Active	–	> 50%
CC(=O)NCCc1ccc(O[C@H]2CC[C@H](Nc3ccccc3)CC2)cc1-c1cccc(F)c1	Active	–	< 50%
CC(=O)NCCc1ccc(O[C@@H]2CCC[C@@H](Cc3ccccc3)C2)cc1-c1cccc(F)c1	Active	–	> 50%
CC(=O)NCCc1ccc(O[C@H]2CC[C@H](N(C)c3ccccc3)CC2)cc1-c1cccc(F)c1	Active	–	< 50%
CC(=O)NCCc1ccc(O[C@H]2CCC[C@@H](N(C)c3ccccc3)C2)cc1-c1cccc(F)c1	Active	–	< 50%
O[C@H]1CC[C@H](Oc2ccc(Cl)cc2Cl)CC1	Active	–	–
CC(=O)NCCc1ccc(O[C@@H]2CCC[C@@H](CCc3ccccc3)C2)cc1-c1cccc(F)c1	Active	–	> 50%
CO[C@@H]1[C@@H](OC(N)=O)[C@@H](O)[C@H](Oc2ccc3c(O)c(NC(=O)c4ccc(O)c(CC=C(C)C)c4)c(=O)oc3c2C)OC1(C)C	Active	–	–
O[C@H]1CC[C@@H](Oc2ccc(Cl)cc2)CC1	Active	–	–
CC(=O)NCCc1ccc(O[C@H]2CC[C@H](Sc3ccccc3)CC2)cc1-c1cccc(F)c1	Active	–	> 50%
CC(=O)NCCc1ccc(O[C@H]2CC[C@@H](S(=O)(=O)c3ccccc3)CC2)cc1-c1cccc(F)c1	Active	–	> 50%
O[C@H]1CC[C@@H](Oc2cccc(Cl)c2)CC1	Active	–	–
CC(=O)NCCc1ccc(O[C@H]2CC[C@@H](Nc3ccccc3)CC2)cc1-c1cccc(F)c1	Active	–	> 80%
CC(=O)NCCc1ccc(O[C@H]2CCC[C@@H](OCc3ccccc3)C2)cc1-c1cccc(F)c1	Active	–	> 50%
CC(=O)NCCc1ccc(O[C@@H]2CCC[C@@H](Oc3ccccc3)C2)cc1-c1cccc(F)c1	Active	–	> 50%
CC(=O)NCCc1ccc(O[C@H]2CC[C@@H](Oc3ccccc3Cl)CC2)cc1-c1cccc(F)c1	Active	–	> 50%
CC(=O)NCCc1ccc(O[C@H]2CC[C@H](S(=O)(=O)Cc3ccccc3)CC2)cc1-c1cccc(F)c1	Active	–	> 50%
CC(=O)NCCc1ccc(O[C@H]2CCC[C@@H](Nc3ccccc3)C2)cc1-c1cccc(F)c1	Active	–	> 80%
CC(=O)NCCc1ccc(O[C@@H]2CCC[C@@H](N(C)c3ccccc3)C2)cc1-c1cccc(F)c1	Active	–	< 50%

Compound	Activity [1]	Activity [2]	Activity [3]
CC(=O)NCCc1ccc(O[C@H]2CCC[C@@H](Oc3ccccc3)C2)cc1-c1cccc(F)c1	Active	–	> 50%
CC(=O)NCCc1ccc(O[C@H]2CC[C@@H](Oc3ccc(Cl)cc3Cl)CC2)cc1-c1cccc(F)c1	Active	–	> 50%
CC(=O)NCCc1ccc(O[C@H]2CCC[C@@H](Sc3ccccc3)C2)cc1-c1cccc(F)c1	Active	–	> 50%
CC(=O)NCCc1ccc(O[C@H]2CC[C@H](Oc3ccccc3Cl)CC2)cc1-c1cccc(F)c1	Active	–	> 50%
CC(=O)NCCc1ccc(O[C@@H]2CCC[C@@H](OCc3ccccc3)C2)cc1-c1cccc(F)c1	Active	–	< 50%
O[C@H]1CC[C@H](Oc2cccc(Cl)c2)CC1	Active	–	–
CC(=O)NCCc1ccc(O[C@H]2CC[C@@H](Cc3ccccc3)CC2)cc1-c1cccc(F)c1	Active	–	> 50%
CC(=O)NCCc1ccc(O[C@@H]2CCC[C@H](Sc3ccccc3)C2)cc1-c1cccc(F)c1	Active	–	> 50%
CC(=O)NCCc1ccc(O[C@H]2CCC[C@@H](SCc3ccccc3)C2)cc1-c1cccc(F)c1	Active	–	–
O[C@H]1CC[C@@H](Oc2ccc(Cl)cc2Cl)CC1	Active	–	–
CC(=O)NCCc1ccc(O[C@H]2CC[C@@H](Oc3ccccc3)CC2)cc1-c1cccc(F)c1	Active	–	> 50%
CC(=O)NCCc1ccc(O[C@H]2CC[C@H](Oc3cccc(Cl)c3)CC2)cc1-c1cccc(F)c1	–	Active	> 50%
CC(=O)NCCc1ccc(O[C@@H]2CCC[C@@H](SCc3ccccc3)C2)cc1-c1cccc(F)c1	Active	–	> 50%
CC(=O)NCCc1ccc(O[C@H]2CC[C@@H](SCc3ccccc3)CC2)cc1-c1cccc(F)c1	Active	–	–
O[C@H]1CC[C@H](Oc2ccc(Cl)cc2)CC1	Active	–	–
CC(=O)NCCc1ccc(O[C@H]2CC[C@@H](OCc3ccccc3)CC2)cc1-c1cccc(F)c1	Active	–	–
CC(=O)NCCc1ccc(O[C@@H]2CCC[C@@H](Nc3ccccc3)C2)cc1-c1cccc(F)c1	Active	–	< 50%
CC(=O)NCCc1ccc(O[C@H]2CC[C@@H](S(=O)(=O)Cc3ccccc3)CC2)cc1-c1cccc(F)c1	Active	–	> 50%
CC(=O)NCCc1ccc(O[C@H]2CC[C@H](Oc3ccc(Cl)cc3Cl)CC2)cc1-c1cccc(F)c1	Active	–	> 50%
CC(=O)NCCc1ccc(O[C@H]2CC[C@@H](Sc3ccccc3)CC2)cc1-c1cccc(F)c1	Active	–	> 50%
CC(=O)NCCc1ccc(O[C@H]2CC[C@H](S(=O)(=O)c3ccccc3)CC2)cc1-c1cccc(F)c1	Active	–	> 50%
CC(=O)NCCc1ccc(O[C@H]2CC[C@@H](C(F)(F)Cc3ccccc3)CC2)cc1-c1cccc(F)c1	Active	–	> 50%
CC(=O)NCCc1ccc(O[C@H]2CCC[C@@H](Cc3ccccc3)C2)cc1-c1cccc(F)c1	Active	–	> 50%
CC(=O)NCCc1ccc(O[C@H]2CC[C@@H](N(C)c3ccccc3)CC2)cc1-c1cccc(F)c1	Active	–	< 50%
CC(=O)NCCc1ccc(O[C@H]2CCC[C@@H](CCc3ccccc3)C2)cc1-c1cccc(F)c1	Active	–	> 50%
CC(=O)NCCc1ccc(O[C@H]2CC[C@H](Oc3ccc(Cl)cc3)CC2)cc1-c1cccc(F)c1	–	Active	> 50%
